Data as given in US20240123078A1, “COMPOUNDS AND METHODS FOR MODULATING IMMUNE-RELATED PROTEINS” (Vividion Therapeutics, Inc., priority 2019, published 2024).

Assays:
[1] = target: T1, TYK2 Non-receptor tyrosine-protein kinase TYK2 C838 (P29597) (Homo sapiens, UniProt P29597); experiment: Cysteine reactivity ABPP; format: binding
T1 construct: endogenous in cells; host or cells: primary human T cells
Method: (§1) Activated or expanded primary human T cells were re-suspended in RPMI (1×10^6 cells/mL) containing 10% fetal bovine serum (FBS), penicillin (100 U/mL), streptomycin ([…]), and L-glutamine (2 mM). The cells were treated with DMSO or compounds for 3 h, pelleted (524 g, 5 min), washed with PBS, and lysed by sonication (2×8 pulses). Soluble and particulate proteomic fractions were separated by ultracentrifugation (100,000 g, 45 min), and protein concentration was normalized to 1.7 mg/mL using a standard DC protein assay (Bio-Rad). The resulting proteomes were analyzed by competitive isotopic Tandem Orthogonal Proteolysis Activity-Based Protein Profiling (isoTOP-ABPP).
(§2) The heavy/light isoTOP-ABPP ratios (R values) for each unique peptide (DMSO/compound treated) were quantified with in-house CIMAGE software (Weerapana et al., 2010) using default parameters (3 MS1 acquisitions per peak and signal to noise threshold set to 2.5). Site-specific engagement of cysteine residues was assessed by blockade of IA-alkyne probe labeling. […] Ratios for unique peptide sequences were calculated for each experiment; overlapping peptides with the same modified cysteine (e.g., different charge states, elution times or tryptic termini) were grouped together and the median ratio was reported as the final ratio (R). Additionally, ratios for peptide sequences containing multiple cysteines were grouped together. When aggregating data across experimental replicates, the mean of each experimental median R was reported. The peptide ratios reported by CIMAGE were further filtered to ensure the removal or correction of low-quality ratios in each individual dataset. The quality filters applied were the following: removal of half-tryptic peptides, removal of peptides with more than one tryptic miscleaved, removal of peptides with R=20 and only a single MS2 event triggered during the elution of the parent ion, removal of non-unique peptides. Further filtering was then performed as described below for each experiment type.
(§3) Samples (500 μL, 1.7 mg/mL) were treated with iodoacetamide desthiobiotin (IA-DTB, 5 μL of 10 mM stock in DMSO, final concentration: 100 μM) for 1 h at ambient temperature. Ice-cold MeOH (500 μL) and CHCl3 (200 μL) were then added, the mixture was vortexed and centrifuged (10,000 g, 10 min, 4° C.) to afford a protein disc at the interface of CHCl3 and aqueous layers. Both layers were aspirated without perturbing the disk, which was re-suspended in cold methanol (500 μL) and CHCl3 (200 μL) by sonication. The proteins were pelleted (10,000 g, 10 min, 4° C.), and the resulting pellets were re-suspended in a buffer (90 μL) containing 9M urea, 10 mM DTT and 50 mM triethylammonium bicarbonate ( 1/20 dilution of 1.0 M stock solution, pH 8.5) by thorough pipetting up and down. The resulting mixture was heated at 65° C. for 20 min. Sample was cooled to room temp, iodoacetamide (10 μL, 500 mM solution in H2O) was added, and the samples were incubated at 37° C. for 30 min with shaking.
(§4) At individual TMT experiment level, the following filters were applied to remove low-quality peptides: removal of non-unique peptides; removal of half-tryptic peptides; removal of peptides with more than one internal miscleaved site; removal of peptides with low (<10,000) sum of reporter ion intensities for control channels, and peptides with high variation between the replicate control channels (coefficient of variance >0.5). R values (compound-treated vs. DMSO-treated) for each peptide entry were calculated using the reporter ion intensities of DMSO and compound treated TMT channels for each treatment group with a maximum ratio cap of 20. […]

[2] = target: T2, PTPN11 Tyrosine-protein phosphatase non-receptor type 11 C259 (Q06124) (Homo sapiens, UniProt Q06124); experiment: Cysteine reactivity ABPP; format: binding
T2 construct: endogenous in cells; host or cells: primary human T cells
T2 sequence (Q06124 1-593): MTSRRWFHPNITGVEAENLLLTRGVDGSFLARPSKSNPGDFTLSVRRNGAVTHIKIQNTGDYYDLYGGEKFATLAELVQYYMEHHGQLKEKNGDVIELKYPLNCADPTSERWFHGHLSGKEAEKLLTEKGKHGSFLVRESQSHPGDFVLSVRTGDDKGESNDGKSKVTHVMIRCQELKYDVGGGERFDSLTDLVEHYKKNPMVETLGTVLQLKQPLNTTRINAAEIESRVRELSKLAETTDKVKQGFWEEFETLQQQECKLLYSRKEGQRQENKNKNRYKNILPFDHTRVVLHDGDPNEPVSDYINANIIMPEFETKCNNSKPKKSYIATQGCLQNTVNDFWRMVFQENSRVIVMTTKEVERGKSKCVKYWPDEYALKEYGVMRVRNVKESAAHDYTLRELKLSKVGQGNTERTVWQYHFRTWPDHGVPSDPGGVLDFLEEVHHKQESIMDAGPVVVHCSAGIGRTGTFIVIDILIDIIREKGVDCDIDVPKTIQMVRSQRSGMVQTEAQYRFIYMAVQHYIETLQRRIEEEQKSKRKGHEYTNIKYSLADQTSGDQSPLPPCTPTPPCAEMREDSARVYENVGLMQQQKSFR
Method: as §1, §2, §3, §4

[3] = target: T3, PFKFB3 6-phosphofructo-2-kinase/fructose-2,6-bisphosphatase 3 C155 (Q16875) (Homo sapiens, UniProt Q16875); experiment: Cysteine reactivity ABPP; format: binding
T3 construct: endogenous in cells; host or cells: primary human T cells
Method: as §1, §2, §3, §4

[4] = target: T4, ACAT1 Acetyl-CoA acetyltransferase, mitochondrial C119 (P24752) (Homo sapiens, UniProt P24752); experiment: Cysteine reactivity ABPP; format: binding
T4 construct: endogenous in cells; host or cells: primary human T cells
T4 sequence (P24752 34-427): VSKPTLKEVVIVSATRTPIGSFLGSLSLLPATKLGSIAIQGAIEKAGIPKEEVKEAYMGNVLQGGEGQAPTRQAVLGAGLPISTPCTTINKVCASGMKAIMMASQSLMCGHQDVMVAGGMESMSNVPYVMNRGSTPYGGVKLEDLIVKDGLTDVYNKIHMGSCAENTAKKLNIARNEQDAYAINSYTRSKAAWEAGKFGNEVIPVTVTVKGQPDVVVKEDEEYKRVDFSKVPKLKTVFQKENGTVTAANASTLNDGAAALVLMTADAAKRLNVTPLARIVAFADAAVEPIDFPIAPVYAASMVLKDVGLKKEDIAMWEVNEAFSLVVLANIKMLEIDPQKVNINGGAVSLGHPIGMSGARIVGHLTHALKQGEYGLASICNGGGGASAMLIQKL
Method: as §1, §2, §3, §4

[5] = target: T5, STAT3 Signal transducer and activator of transcription 3 C259 (P40763) (Homo sapiens, UniProt P40763); experiment: Cysteine reactivity ABPP; format: binding
T5 construct: endogenous in cells; host or cells: primary human T cells
Method: as §1, §2, §3, §4

[6] = target: T6, STAT3 Signal transducer and activator of transcription 3 C712, C718 (P40763) (Homo sapiens, UniProt P40763); experiment: Cysteine reactivity ABPP; format: binding
T6 construct: endogenous in cells; host or cells: primary human T cells
Method: as §1, §2, §3, §4

[7] = target: T7, JAK1 Tyrosine-protein kinase JAK1 C810, C817 (P23458) (Homo sapiens, UniProt P23458); experiment: Cysteine reactivity ABPP; format: binding
T7 construct: endogenous in cells; host or cells: primary human T cells
Method: as §1, §2, §3, §4

[8] = target: T8, CBLB E3 ubiquitin-protein ligase CBL-B C686 (Q13191) (Homo sapiens, UniProt Q13191); experiment: Cysteine reactivity ABPP; format: binding
T8 construct: endogenous in cells; host or cells: primary human T cells
Method: as §1, §2, §3, §4

primary human T cells = experiment: Multidimensional screen for inhibition of T cell activation; format: cell-based
Method: Non-tissue culture treated 96-well plates are pre-coated with αCD3 (5 μg/mL) and αCD28 antibodies (2 μg/mL) in PBS (100 μL/well) and left at 4° C. overnight. Freshly isolated T cells are re-suspended in RPMI media supplemented with 10% FBS, L-glutamine (2 mM), penicillin (100 U/mL), and streptomycin (100 μg/mL) at 2×10^6 cells/mL. Compound stocks (200×) in DMSO are diluted to 2× stocks in the working RPMI media in another 96-well plate. The pre-coated 96-well treatment plates are washed with PBS (2×200μL), T cells (100 μL/well, 2×10^5 cells/well) are then added to the wells, followed by the addition of 2× compound stocks in RPMI media (100 μL). […]
The levels of secreted IL2, IFNγ and TNFα after incubating T cells in the presence of DMSO or electrophilic compounds under TCR-stimulating conditions are measured using DuoSet ELISA cytokine kits (R&D Systems) in clear microplates (R&D Systems) according to manufacturer's instructions and read using a CLARIOstar (BMG Labtech) plate reader (450 nm).
A multidimensional screen can be preformed of a focused library of structurally elaborated electrophilic small molecules to identify compounds that suppress T cell activation at low-μM concentrations without causing cytotoxicity. […] The viability of T cells can be monitored by flow cytometry using near-IR live-dead stain.

BIRC2 (C45) = target: T9, BIRC2 (C45) (Homo sapiens, UniProt Q13490); experiment: isoTOP-ABPP of elaborated compound data (DMF datasets); format: binding; details: maximal ratio of 20 = ≥95% reduction in MS1 peak area
T9 construct: endogenous in cells; host or cells: primary human T cells
Method: as §1
(§5) The heavy/light isoTOP-ABPP ratios (R values) for each unique peptide (DMSO/compound treated) were quantified with in-house CIMAGE software (Weerapana et al., 2010) using default parameters (3 MS1 acquisitions per peak and signal to noise threshold set to 2.5). Site-specific engagement of cysteine residues was assessed by blockade of IA-alkyne probe labeling. […] Ratios for unique peptide sequences were calculated for each experiment; overlapping peptides with the same modified cysteine (e.g., different charge states, elution times or tryptic termini) were grouped together and the median ratio was reported as the final ratio (R). […]

CASP2 (C366, C370) = target: T10, CASP2 (C366, C370) (Homo sapiens, UniProt P42575); experiment: as above; format: binding; details: maximal ratio of 20 = ≥95% reduction in MS1 peak area
T10 construct: Soluble and particulate proteomic fractions were separated by ultracentrifugation; endogenous in cells; host or cells: primary human T cells
T10 sequence (P42575 1-452): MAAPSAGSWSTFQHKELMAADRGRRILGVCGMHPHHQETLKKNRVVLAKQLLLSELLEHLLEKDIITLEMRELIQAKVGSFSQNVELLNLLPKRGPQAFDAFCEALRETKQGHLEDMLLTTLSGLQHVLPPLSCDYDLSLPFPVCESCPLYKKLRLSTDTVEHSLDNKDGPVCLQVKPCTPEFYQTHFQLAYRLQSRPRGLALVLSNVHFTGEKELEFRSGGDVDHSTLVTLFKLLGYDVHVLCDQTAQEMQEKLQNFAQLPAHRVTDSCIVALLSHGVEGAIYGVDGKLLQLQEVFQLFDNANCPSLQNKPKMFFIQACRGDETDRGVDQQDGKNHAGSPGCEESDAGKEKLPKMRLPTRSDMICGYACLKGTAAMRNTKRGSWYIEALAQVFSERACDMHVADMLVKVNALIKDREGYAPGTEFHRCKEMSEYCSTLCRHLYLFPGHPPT
Method: as §1, §5

T7 sequence (P23458 whole entry): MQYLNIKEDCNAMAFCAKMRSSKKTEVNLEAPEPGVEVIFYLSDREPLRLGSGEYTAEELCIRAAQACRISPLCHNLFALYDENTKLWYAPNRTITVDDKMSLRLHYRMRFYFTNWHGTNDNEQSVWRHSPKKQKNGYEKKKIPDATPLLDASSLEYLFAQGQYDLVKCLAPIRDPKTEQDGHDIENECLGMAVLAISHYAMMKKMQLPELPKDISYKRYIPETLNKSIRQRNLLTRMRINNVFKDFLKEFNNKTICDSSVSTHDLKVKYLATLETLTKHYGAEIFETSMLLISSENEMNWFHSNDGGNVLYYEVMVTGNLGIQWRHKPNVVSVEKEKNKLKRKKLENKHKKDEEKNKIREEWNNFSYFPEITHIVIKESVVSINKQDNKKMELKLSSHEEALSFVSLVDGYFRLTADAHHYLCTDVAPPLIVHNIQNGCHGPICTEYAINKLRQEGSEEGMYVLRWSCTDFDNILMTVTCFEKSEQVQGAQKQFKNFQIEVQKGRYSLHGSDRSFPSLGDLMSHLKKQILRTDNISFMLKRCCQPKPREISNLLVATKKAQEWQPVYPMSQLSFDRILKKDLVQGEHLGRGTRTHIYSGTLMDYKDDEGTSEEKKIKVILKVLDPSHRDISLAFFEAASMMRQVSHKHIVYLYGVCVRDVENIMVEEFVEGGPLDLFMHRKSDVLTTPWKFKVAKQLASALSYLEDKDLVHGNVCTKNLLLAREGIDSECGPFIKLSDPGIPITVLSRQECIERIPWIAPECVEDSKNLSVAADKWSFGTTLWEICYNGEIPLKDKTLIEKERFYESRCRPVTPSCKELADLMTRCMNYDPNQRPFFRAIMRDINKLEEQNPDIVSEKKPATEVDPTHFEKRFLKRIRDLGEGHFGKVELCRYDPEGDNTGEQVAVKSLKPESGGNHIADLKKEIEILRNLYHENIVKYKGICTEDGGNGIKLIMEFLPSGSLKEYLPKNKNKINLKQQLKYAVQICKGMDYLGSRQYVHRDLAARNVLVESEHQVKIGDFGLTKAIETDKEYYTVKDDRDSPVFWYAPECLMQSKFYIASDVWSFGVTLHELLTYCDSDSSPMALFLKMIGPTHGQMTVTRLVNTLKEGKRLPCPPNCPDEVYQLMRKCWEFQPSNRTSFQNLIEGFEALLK
T8 sequence (Q13191 whole entry): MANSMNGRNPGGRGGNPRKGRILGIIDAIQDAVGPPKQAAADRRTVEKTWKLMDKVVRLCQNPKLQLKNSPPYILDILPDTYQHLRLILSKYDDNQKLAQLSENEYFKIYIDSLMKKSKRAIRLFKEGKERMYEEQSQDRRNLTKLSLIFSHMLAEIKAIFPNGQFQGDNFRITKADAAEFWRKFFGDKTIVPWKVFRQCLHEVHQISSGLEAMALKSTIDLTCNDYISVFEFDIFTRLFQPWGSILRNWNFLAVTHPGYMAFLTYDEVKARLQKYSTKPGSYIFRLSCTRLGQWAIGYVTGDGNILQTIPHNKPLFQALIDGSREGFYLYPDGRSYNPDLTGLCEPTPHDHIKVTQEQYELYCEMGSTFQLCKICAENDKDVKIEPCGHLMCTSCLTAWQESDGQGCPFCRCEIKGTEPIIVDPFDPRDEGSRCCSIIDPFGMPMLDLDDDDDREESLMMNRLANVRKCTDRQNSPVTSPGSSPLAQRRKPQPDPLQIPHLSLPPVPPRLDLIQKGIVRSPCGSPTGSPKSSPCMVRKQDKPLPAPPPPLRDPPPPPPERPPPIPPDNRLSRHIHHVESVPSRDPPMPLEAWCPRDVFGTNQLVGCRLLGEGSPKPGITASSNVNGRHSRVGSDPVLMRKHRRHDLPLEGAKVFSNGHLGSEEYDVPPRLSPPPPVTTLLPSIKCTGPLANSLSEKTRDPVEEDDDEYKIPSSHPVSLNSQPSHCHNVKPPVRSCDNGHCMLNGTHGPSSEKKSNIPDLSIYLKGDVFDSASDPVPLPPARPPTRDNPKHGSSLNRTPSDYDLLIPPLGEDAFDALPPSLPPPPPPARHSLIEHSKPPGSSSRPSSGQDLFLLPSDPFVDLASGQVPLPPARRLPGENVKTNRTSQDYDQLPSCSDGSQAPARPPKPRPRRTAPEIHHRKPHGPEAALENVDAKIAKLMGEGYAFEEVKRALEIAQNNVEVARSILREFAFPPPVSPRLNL
T1 sequence (P29597 whole entry): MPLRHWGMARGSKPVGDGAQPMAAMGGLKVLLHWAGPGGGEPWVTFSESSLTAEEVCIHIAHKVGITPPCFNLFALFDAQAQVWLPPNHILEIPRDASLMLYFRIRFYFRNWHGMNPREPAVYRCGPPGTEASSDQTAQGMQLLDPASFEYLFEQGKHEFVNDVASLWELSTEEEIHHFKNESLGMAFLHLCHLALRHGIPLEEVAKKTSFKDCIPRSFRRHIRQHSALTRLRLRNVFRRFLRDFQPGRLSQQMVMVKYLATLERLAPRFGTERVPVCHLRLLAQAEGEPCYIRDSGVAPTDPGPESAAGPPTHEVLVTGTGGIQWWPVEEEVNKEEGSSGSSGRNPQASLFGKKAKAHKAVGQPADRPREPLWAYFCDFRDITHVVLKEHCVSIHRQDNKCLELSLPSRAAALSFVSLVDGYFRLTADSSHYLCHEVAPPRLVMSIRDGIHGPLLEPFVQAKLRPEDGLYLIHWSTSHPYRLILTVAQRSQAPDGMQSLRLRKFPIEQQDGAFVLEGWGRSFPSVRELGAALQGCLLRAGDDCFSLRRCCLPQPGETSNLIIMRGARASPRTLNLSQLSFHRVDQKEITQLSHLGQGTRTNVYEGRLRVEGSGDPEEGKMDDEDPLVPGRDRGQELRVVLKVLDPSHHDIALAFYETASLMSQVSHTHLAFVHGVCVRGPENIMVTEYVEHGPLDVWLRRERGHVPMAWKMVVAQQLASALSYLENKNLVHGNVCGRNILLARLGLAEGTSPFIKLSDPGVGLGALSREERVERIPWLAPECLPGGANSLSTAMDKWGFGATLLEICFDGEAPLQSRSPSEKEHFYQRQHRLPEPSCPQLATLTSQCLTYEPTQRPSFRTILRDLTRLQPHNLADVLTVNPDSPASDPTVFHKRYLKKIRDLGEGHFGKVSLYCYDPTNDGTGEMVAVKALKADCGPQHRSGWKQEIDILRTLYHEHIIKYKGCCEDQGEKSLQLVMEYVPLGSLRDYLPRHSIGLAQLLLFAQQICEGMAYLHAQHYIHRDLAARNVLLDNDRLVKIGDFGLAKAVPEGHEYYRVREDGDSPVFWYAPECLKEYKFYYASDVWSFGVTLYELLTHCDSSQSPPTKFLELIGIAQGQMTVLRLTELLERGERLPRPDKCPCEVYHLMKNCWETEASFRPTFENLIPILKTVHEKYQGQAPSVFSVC
T6 sequence (P40763 whole entry, one chain of several): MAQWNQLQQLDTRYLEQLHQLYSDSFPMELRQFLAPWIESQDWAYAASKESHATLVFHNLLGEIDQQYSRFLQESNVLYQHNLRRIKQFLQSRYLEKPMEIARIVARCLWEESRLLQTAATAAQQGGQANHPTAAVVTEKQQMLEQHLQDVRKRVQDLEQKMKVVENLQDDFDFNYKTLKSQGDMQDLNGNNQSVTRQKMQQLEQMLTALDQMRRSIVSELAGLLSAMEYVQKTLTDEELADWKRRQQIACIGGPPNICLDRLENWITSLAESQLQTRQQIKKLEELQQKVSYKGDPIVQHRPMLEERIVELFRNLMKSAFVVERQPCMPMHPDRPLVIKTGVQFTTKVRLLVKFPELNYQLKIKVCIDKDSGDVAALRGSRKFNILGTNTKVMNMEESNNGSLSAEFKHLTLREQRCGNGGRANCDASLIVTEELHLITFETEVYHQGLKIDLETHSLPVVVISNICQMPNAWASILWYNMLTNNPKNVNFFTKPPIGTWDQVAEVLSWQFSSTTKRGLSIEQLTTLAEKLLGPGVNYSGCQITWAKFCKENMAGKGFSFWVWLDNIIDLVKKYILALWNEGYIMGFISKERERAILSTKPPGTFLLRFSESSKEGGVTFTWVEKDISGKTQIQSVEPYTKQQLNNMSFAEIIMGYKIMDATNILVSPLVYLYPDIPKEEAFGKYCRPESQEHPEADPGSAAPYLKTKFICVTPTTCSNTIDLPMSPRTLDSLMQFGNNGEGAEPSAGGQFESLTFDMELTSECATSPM
T5 sequence (P40763 whole entry, one chain of several): as above
T3 sequence (Q16875 whole entry, one chain of several): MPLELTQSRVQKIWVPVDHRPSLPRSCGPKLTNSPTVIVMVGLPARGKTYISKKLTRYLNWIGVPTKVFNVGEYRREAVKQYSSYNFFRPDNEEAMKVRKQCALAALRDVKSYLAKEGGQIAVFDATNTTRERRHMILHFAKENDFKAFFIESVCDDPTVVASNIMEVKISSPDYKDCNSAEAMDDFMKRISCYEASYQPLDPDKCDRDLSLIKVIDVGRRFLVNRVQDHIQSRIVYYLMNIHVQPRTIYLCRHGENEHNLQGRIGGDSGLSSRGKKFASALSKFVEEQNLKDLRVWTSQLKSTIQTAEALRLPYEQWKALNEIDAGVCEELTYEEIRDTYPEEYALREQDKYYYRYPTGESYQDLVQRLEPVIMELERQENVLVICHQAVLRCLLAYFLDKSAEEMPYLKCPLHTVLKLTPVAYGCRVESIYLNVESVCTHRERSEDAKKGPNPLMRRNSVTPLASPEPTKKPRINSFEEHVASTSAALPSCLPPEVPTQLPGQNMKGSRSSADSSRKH

Row | SMILES | Cysteine reactivity proteomic data ([1]; 100 μM) | Cysteine reactivity proteomic data ([1]; 500 μM) | Cysteine reactivity proteomic data ([2]; 100 μM) | Cysteine reactivity proteomic data ([2]; 500 μM) | Cysteine reactivity proteomic data ([3]; 100 μM) | Cysteine reactivity proteomic data ([3]; 500 μM) | Cysteine reactivity proteomic data ([4]; 100 μM) | Cysteine reactivity proteomic data ([4]; 500 μM) | Cysteine reactivity proteomic data ([5]; 100 μM) | Cysteine reactivity proteomic data ([5]; 500 μM) | Cysteine reactivity proteomic data ([6]; 100 μM) | Cysteine reactivity proteomic data ([6]; 500 μM) | Cysteine reactivity proteomic data ([7]; 100 μM) | Cysteine reactivity proteomic data ([7]; 500 μM) | Cysteine reactivity proteomic data ([8]; 100 μM) | Cysteine reactivity proteomic data ([8]; 500 μM) | suppress T cell activation (primary human T cells; anti-CD3/anti-CD28 activation, measured 24 h later by reductions in secreted IL-2, IFN-γ and CD69, CD25 expression) [%] | viability of T cells (primary human T cells; flow cytometry, near-IR live-dead stain) [%] | isoTOP-ABPP ratio R (DMSO/compound treated) (BIRC2 (C45)) | isoTOP-ABPP ratio R (DMSO/compound treated) (CASP2 (C366, C370))
1 | C=CC(=O)N(Cc1cccc(Cl)n1)c1ccc(C(=O)Nc2ccccc2)nc1 [Compound L4] | 96.4386 | 98.2637 | 50.0993 | 72.8049 | 81.7564 | 89.0944 | −14.9577 | 58.3081 | 58.1986 | 57.1888 | 42.1791 | 80.6157 | 94.3358 | 99.489 | 4.7619 | 84.7455 |  |  |  | 
2 | CN(C)C=O [DMF] |  |  |  |  |  |  |  |  |  |  |  |  |  |  |  |  | > 65 | > 85 | 20 | 20
